Test [1] concerns the target T1, Steroid 5-alpha-reductase (Rattus norvegicus, UniProt P24008+P31214).
T1 sequence (P24008 whole entry): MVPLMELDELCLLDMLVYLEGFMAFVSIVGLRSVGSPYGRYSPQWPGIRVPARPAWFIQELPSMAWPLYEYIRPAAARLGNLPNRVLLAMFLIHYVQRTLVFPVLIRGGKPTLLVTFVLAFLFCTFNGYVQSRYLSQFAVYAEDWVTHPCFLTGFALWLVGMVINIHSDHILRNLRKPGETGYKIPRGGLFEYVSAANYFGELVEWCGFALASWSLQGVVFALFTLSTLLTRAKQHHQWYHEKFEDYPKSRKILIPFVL
T1 sequence (P31214 whole entry): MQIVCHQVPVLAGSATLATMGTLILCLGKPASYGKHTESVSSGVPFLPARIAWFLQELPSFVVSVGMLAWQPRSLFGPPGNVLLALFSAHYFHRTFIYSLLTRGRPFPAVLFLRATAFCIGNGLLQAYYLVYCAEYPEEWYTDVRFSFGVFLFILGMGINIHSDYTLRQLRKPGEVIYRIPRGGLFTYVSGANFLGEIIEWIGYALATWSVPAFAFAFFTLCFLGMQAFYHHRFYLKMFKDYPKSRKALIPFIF
The test is described as follows: Inhibitory activity against prostatic 5-alpha reductase in Sprague-Dawley rat. It counts as protein assay.

For test [2], the target named is Adrenergic receptor alpha-1 (Oryctolagus cuniculus). Description: Inhibition of phenylephrine-induced contractions in white rabbit prostate.

`COc1ccccc1N1CCN(CCCOc2ccc(C(=O)Nc3ccccc3OCCCC(=O)O)cc2)CC1` gave an IC50 in test [1] of 41 µM. The pA2 in test [2] is recorded as 7.

In turn, `COc1ccccc1NC(=O)c1ccc(OCCCN2CCN(c3ccccc3OC)CC2)cc1` registered a pA2 in test [2] of 7.1.

On to `COc1ccccc1N1CCN(CCC(Oc2ccc(NC(=O)c3ccccc3OCCCC(=O)O)cc2)c2ccc(C)cc2)CC1` (stereo not given), for which, in test [1], the IC50 was 0.44 µM. The compound further gave a pA2 in test [2] of 7.1.

Consider `COc1ccccc1N1CCN(CCC(Oc2ccc(NC(=O)c3ccccc3OCCCC(=O)O)cc2)c2ccccc2)CC1` (stereo not given), for which, in test [1], the IC50 was determined as 0.73 µM. In addition, in test [2], the pA2 is listed as 7.1.

In test [1], `COc1ccccc1N1CCN(CCCCCCOc2ccc(C(=O)Nc3ccccc3OCCCC(=O)O)cc2)CC1` registered an IC50 of 9.5 µM. For the same compound, the pA2 in test [2] stood at 7.

As to `COc1ccccc1N1CCN(CCOc2ccc(C(=O)Nc3ccccc3OCCCC(=O)O)cc2)CC1`, the IC50 in test [1] worked out at 29 µM. The same compound came in with a pA2 in test [2] of 6.6.

Consider `COc1ccccc1N1CCN(CCC(Oc2ccc(C(=O)Nc3ccccc3OCCCC(=O)O)cc2)c2ccc(Br)cc2)CC1` (stereo not given), for which the IC50 in test [1] came to 0.21 µM. The compound also came in with a pA2 in test [2] of 7.

In the case of `COc1ccc(C(CCN2CCN(c3ccccc3OC)CC2)Oc2ccc(C(=O)Nc3ccccc3OCCCC(=O)O)cc2)cc1` (stereo not given), the IC50 in test [1] was 0.17 µM. Also, the pA2 in test [2] amounted to 6.7.

`COc1ccccc1N1CCN(CCCCC(Oc2ccc(C(=O)Nc3ccccc3OCCCC(=O)O)cc2)c2ccccc2)CC1` (stereo not given) yielded an IC50 in test [1] of 0.91 µM. In test [2], this compound came in with a pA2 of 6.6.

As for `COc1ccccc1N1CCN(CCCC(Oc2ccc(C(=O)Nc3ccccc3OCCCC(=O)O)cc2)c2ccccc2)CC1` (stereo not given), the IC50 in test [1] was determined as 0.75 µM. The compound also yielded a pA2 in test [2] of 6.5.

Consider `COc1ccccc1N1CCN(CCCCOc2ccc(C(=O)Nc3ccccc3OCCCC(=O)O)cc2)CC1`, for which the IC50 in test [1] stood at 43 µM. The pA2 in test [2] was 7.1.

`COc1ccccc1N1CCN(CCC(Oc2ccc(NC(=O)c3ccccc3OCCCC(=O)O)cc2)c2ccc(CC(C)C)cc2)CC1` (stereo not given) had an IC50 in test [1] of 0.096 µM. The same compound showed a pA2 in test [2] of 5.2.

`COc1ccccc1N1CCN(CCC(Oc2ccc(C(=O)Nc3ccccc3OCCCC(=O)O)cc2)c2ccc(CC(C)C)cc2)CC1` (stereo not given) yielded an IC50 in test [1] of 0.039 µM. In test [2], this compound had a pA2 of 5.7.

Take `COc1ccccc1N1CCN(CCC(Oc2ccc(C(=O)Nc3ccccc3OCCCC(=O)O)cc2)c2ccccc2)CC1` (stereo not given): in test [1], the IC50 turned out to be 1 µM. The pA2 in test [2] was 7.6.

Regarding `COc1ccccc1N1CCN(CCC(Oc2ccc(C(=O)Nc3ccccc3OCCCC(=O)O)cc2)c2ccc(C)cc2)CC1` (stereo not given), the IC50 in test [1] amounted to 0.067 µM. This compound also registered a pA2 in test [2] of 7.8.

On to `CCc1ccc(C(CCN2CCN(c3ccccc3OC)CC2)Oc2ccc(C(=O)Nc3ccccc3OCCCC(=O)O)cc2)cc1` (stereo not given), for which the IC50 in test [1] came to 0.07 µM. The pA2 in test [2] worked out at 7.4.

In test [1], `CCc1ccc(C(CCN2CCN(c3ccccc3OC)CC2)Oc2ccc(NC(=O)c3ccccc3OCCCC(=O)O)cc2)cc1` (stereo not given) gave a 50% inhibitory concentration (IC50) of 0.13 µM. This compound also showed a pA2 in test [2] of 6.7.

`COc1ccccc1N1CCN(CCC(Oc2ccc(C(=O)Nc3ccccc3OCCCC(=O)O)cc2)c2cccc(C)c2)CC1` (stereo not given) yielded an IC50 in test [1] of 0.36 µM. The same compound came in with a pA2 in test [2] of 6.6.

For orientation: IC50 means the concentration that gives 50% inhibition. In general, pA2 refers to the negative logarithm of the molar antagonist concentration that doubles the agonist concentration needed for the same response. Low readings indicate lower antagonist potency, high ones higher antagonist potency.

These data come from ChEMBL document CHEMBL1130643, “Synthesis of benzanilide derivatives as dual acting agents with alpha 1-adrenoceptor antagonistic action and steroid 5-alpha reductase inhibitory activity” (Bioorg Med Chem Lett, 1998).
